{"source": "patent US20050107474A1", "about": "“Pharmaceutical compositions for the treatment of infections of the respiratory system by pathogenic agents” (priority 2002, published 2005)", "key": {"[1]": {"test_system": "S. aureus biofilm", "experiment": "Biofilm formation in polystyrene microplates, crystal violet, spectrophotometric at 492 nm", "format": "cell-based, Staphylococcus aureus", "details": "for reduction of the biofilm (formation) / decrease of biofilm production: NAC 8 mg/ml, 24 hours", "procedure": "(§1) The effects of NAC and TAPh on the biofilm produced by S. aureus were evaluated on four strains of the microorganism designated 1393, 1876, 1880 and 1890.\nFormation of the biofilms was quantified spectrophotometrically in polystyrene microplates with U-well geometry (Corning Incorporated, New York).\nIn more detail, the effect of NAC on biofilm formation was evaluated as follows: overnight broth cultures in tryptic soy broth (TSB) with glucose added (0.25%) (TSBG) were diluted 1:100 in TSBG. Appropriate dilutions of NAC at concentrations varying respectively from 8 mg/ml to 0.007 mg/ml were added to the suspensions (100 μl each). After incubation at 37° C. for 24 hours, the microplates were washed three times with 10 mM phosphate buffer pH 7.4 (PBS), treated with Bouin fixative and then stained with crystal violet (0.01%).\n(§2) The biofilm adhering to the walls of the microplates was washed with PBS, suspended in 10% sarcosyl and measured spectrophotometrically at 492 nm."}, "[2]": {"test_system": "S. aureus biofilm", "experiment": "Disruption of biofilm at initial maturation (5 hours)", "format": "cell-based, Staphylococcus aureus", "details": "for disruption of biofilm formed after 5 hours (initial maturation): maximum concentration (8 mg/ml)", "procedure": "as §1, §2\n(§3) The same technique was employed for calculating the residual quantity of biofilm after treatment with NAC alone and combined with TAPh on S. aureus. For this purpose, biofilms with two different degrees of maturity: initial (5 hours) and fully consolidated (48 hours) were exposed to suitable concentrations of NAC (from 8 mg/ml to 0.007 mg/ml) with added TAPh at the concentrations that can be reached in vivo in the pulmonary tree."}, "[3]": {"test_system": "S. aureus biofilm", "experiment": "Disruption of fully consolidated biofilm (48 hours)", "format": "cell-based, Staphylococcus aureus", "procedure": "as §1, §2, §3"}, "[4]": {"test_system": "S. aureus", "experiment": "Viability (CFU/ml) of biofilm cells after sonication and seeding", "format": "cell-based, Staphylococcus aureus", "details": "maximum concentration, range over strains", "procedure": "as §1\nAt the same time, the biofilms thus treated were submitted to sonication in order to disperse the cells that were still adhering, and these were seeded on rich medium after suitable dilution for calculating the vital elements surviving the various treatments."}, "[5]": {"test_system": "S. aureus", "experiment": "Bacterial growth in broth culture with NAC", "format": "cell-based, Staphylococcus aureus", "details": "NAC up to maximum concentration 8 mg/ml"}, "[6]": {"test_system": "P. aeruginosa", "details": "Antimicrob. Agents Chemother., 35, 1258, (1991); cited from earlier work"}, "[7]": {"test_system": "S. epidermidis", "details": "J. Ant. Chem., 39, 643, (1997); cited from earlier work"}}, "note": "Several values for one entry are separate records, joined by “and”; a condition that tells them apart may be missing. Identical values can stand only once."}
{"smiles": "CC(=O)N[C@@H](CS)C(=O)O", "note": "[NAC, N-acetyl-cysteine]", "values": [{"measurement": "reduction of the biofilm (formation)", "setting": "[1]; S. aureus 1393", "result": 68.2, "unit": "%"}, {"measurement": "decrease of biofilm production", "setting": "[1]; S. aureus 1876", "result": 30.3, "unit": "%"}, {"measurement": "decrease of biofilm production", "setting": "[1]; S. aureus 1880", "result": 41.1, "unit": "%"}, {"measurement": "reduction of the biofilm (formation)", "setting": "[1]; S. aureus 1890", "result": 56.3, "unit": "%"}, {"measurement": "glycocalyx production", "setting": "[1]; all the strains", "result": "inhibited glycocalyx production in all the strains"}, {"measurement": "reduction values with NAC on its own, initial biofilms (range over strains, restated)", "setting": "[2]; NAC alone, first range printed", "result": "32.5-65.5%"}, {"measurement": "disruption of biofilm formed after 5 hours (initial maturation)", "setting": "[2]; S. aureus 1876", "result": 32.5, "unit": "%"}, {"measurement": "disruption of biofilm formed after 5 hours (initial maturation)", "setting": "[2]; strain 1393", "result": 61.1, "unit": "%"}, {"measurement": "disruption of biofilm formed after 5 hours (initial maturation)", "setting": "[2]; strain 1880", "result": 57.3, "unit": "%"}, {"measurement": "disruption of biofilm formed after 5 hours (initial maturation)", "setting": "[2]; strain 1890", "result": 58.6, "unit": "%"}, {"measurement": "reduction values with NAC on its own, fully consolidated biofilms (range over strains, restated)", "setting": "[3]; NAC alone, second range printed", "result": "58.1-62%"}, {"measurement": "reduction of mucopolysaccharide material of fully consolidated biofilms", "setting": "[3]; maximum concentration, four strains assayed, one value each, strain per value not given", "result": "62% and 60.5% and 58.1% and 65.5%"}, {"measurement": "reduction in colony forming units per ml (CFU/ml)", "setting": "[4]; cells of mature (consolidated) biofilms", "result": "33.7% to 70.6"}, {"measurement": "reduction in colony forming units per ml (CFU/ml)", "setting": "[4]; cells of the youngest biofilms (initial maturation)", "result": "33.7% to 91"}, {"measurement": "visible changes in bacterial growth", "setting": "[5]", "result": "did not cause visible changes in bacterial growth"}, {"measurement": "disruption of biofilms", "setting": "[6]", "result": "ability to disrupt biofilms"}, {"measurement": "inhibition of biofilm formation", "setting": "[7]", "result": "inhibit their formation"}]}
